Reference: patent US20100144712A1 (priority 2007, published 2010)
Converted amounts (≈) assume the structure as drawn.

Columns and labels:
Type in all cases: cell-based
[1] = tested on: Candida albican ATCC MYA-575; experiment: In vitro antifungal activity (MIC80), Candida albican ATCC MYA-575; details: Candida; Table 2, MYA 575; read-out: Minimal inhibitory concentration (MIC80)
Protocol: (§1) In vitro antifungal activities of the inventive antifungal compounds were evaluated using test strains including Candida albican (ATCC 90873, 204276, 62342, 64124, 64550, 96901, MYA-573, MYA-574, MYA-575, MYA-576, MYA-1003) and Aspergillus fumigatus (ATCC 16424). Test samples and positive control samples were prepared by dissolving the inventive compounds and comparative compounds, i.e., amphotericin B, fluconazole and itraconazole, in DMSO, respectively, and each successively diluted with medium to obtain test and positive control solutions having test compound concentrations of 0.125 μg/ml to a maximum concentration not generating turbidity. Minimal inhibitory concentration (MIC80) of each compound was determined as the lowest concentration of the test compounds required to reduce growth by 80% relative to a control strain not treated.
(§2) 1) Test strain: Candida albican ATCC 90873, 204276, 62342, 64124, 64550, 96901, MYA-573, MYA-574, MYA-575, MYA-576, MYA-1003, and Aspergillus fumigatus ATCC 16424 were commercially obtained from The American Type Culture Collection (ATCC) and subcultured in CHEMON Co. Ltd. (amphotericin B was commercially purchased from Sigma, and fluconazole and itraconazole were prepared according to methods described in British Patent No. 2,099,818; and U.S. Pat. No. 4,267,179, respectively).
(§3) 2) Medium and culture condition: Candida albican was cultured in Sabourad Dextrose Agar, YM Agar or Potato Dextrose Agar according to ATCC information at a temperature of 37° C., 35° C., 30° C. or 25° C. Aspergillus fumigatus was cultured in Malt Extract Agar or Potato Dextrose Agar at a temperature ranging from 24 to 27° C.
(§4) 3) Preparation of test samples: the inventive compounds and comparative compounds were each diluted with DMSO to obtain 1 to 2 ml of a test sample in a concentration of 100-folds of the determining maximum concentration (256 μg/ml).
(§5) The test samples were each successively diluted with RPMI 1640 to obtain test solutions having concentrations of […] in a 12×75 mm sterilized disposable culture tube. The final concentration of DMSO was adjusted to […] (v/v).
(§6) 5) Preparation of strain solution and inoculation
(§7) Candida albican strains were each subcultured in Sabourad Dextrose Agar, YM Agar or Potato Dextrose Agar medium at 35° C. for 2˜3 days. In the case of yeasts, a single colony was taken from prominent colonies and suspended in 0.85% sterile physiological saline solution and the turbidity of the suspension was adjusted to 80˜82% at 530 nm, and then diluted 50-fold with RPMI 1640 medium to 1.0×10^3˜5.0×10^3 CFU/ml. The turbidity of fungi was adjusted to 80˜82% and the suspension was diluted 50-fold to […]. Aspergillus fumigatus strains were subcultured in Malt Extract Agar for 7˜10 days, and a single colony was taken from prominent colonies and suspended in 0.85% sterile physiological saline solution and the suspension was adjusted to 0.108 at 530 nm, and then diluted 1000-fold with RPMI 1640 medium to 0.4×10^2˜5×10^4 CFU/ml. The turbidity of fungi was adjusted to 80˜82% and the suspension was diluted 50-fold to 0.4102˜0.5104 CFU/ml.
(§8) The strain solutions thus obtained were each seeded into a sterilized 96-well microplate, 0.1 ml of each test solution were added thereto, and […] of alamarblue was treated to each well (Biosource, #DAL1100). This procedure was repeated 2 times.
(§9) Minimal inhibitory concentration (MIC80) of each compound was determined as the lowest concentration of the test compounds required to reduce growth by 80% relative to a control strain not treated.

[2] = tested on: Candida albican ATCC MYA-1003; experiment: In vitro antifungal activity (MIC80), Candida albican ATCC MYA-1003; details: Candida; Table 2, MYA 1003; read-out: Minimal inhibitory concentration (MIC80)
Protocol: as §1, §2, §3, §4, §5, §6, §7, §8, §9

[3] = tested on: Candida albican ATCC 64124; experiment: In vitro antifungal activity (MIC80), Candida albican ATCC 64124; details: Candida, ATCC64124; Table 2, 64124; read-out: Minimal inhibitory concentration (MIC80)
Protocol: as §1, §2, §3, §4, §5, §6, §7, §8, §9

[4] = tested on: Candida albican ATCC MYA-576; experiment: In vitro antifungal activity (MIC80), Candida albican ATCC MYA-576; details: Candida; Table 2, MYA 576; read-out: Minimal inhibitory concentration (MIC80)
Protocol: as §1, §2, §3, §4, §5, §6, §7, §8, §9

[5] = tested on: Candida albican ATCC 64550; experiment: In vitro antifungal activity (MIC80), Candida albican ATCC 64550; details: Candida, ATCC64550; Table 2, 64550; read-out: Minimal inhibitory concentration (MIC80)
Protocol: as §1, §2, §3, §4, §5, §6, §7, §8, §9

[6] = tested on: Candida albican ATCC 62342; experiment: In vitro antifungal activity (MIC80), Candida albican ATCC 62342; details: Candida, ATCC62342; Table 2, 62342; read-out: Minimal inhibitory concentration (MIC80)
Protocol: as §1, §2, §3, §4, §5, §6, §7, §8, §9

[7] = tested on: Candida albican ATCC MYA-573; experiment: In vitro antifungal activity (MIC80), Candida albican ATCC MYA-573; details: Candida; Table 2, MYA 573; read-out: Minimal inhibitory concentration (MIC80)
Protocol: as §1, §2, §3, §4, §5, §6, §7, §8, §9

[8] = tested on: Candida albican ATCC MYA-574; experiment: In vitro antifungal activity (MIC80), Candida albican ATCC MYA-574; details: Candida; Table 2, MYA 574; read-out: Minimal inhibitory concentration (MIC80)
Protocol: as §1, §2, §3, §4, §5, §6, §7, §8, §9

[9] = tested on: Candida albican ATCC 90873; experiment: In vitro antifungal activity (MIC80), Candida albican ATCC 90873; details: Candida, ATCC90873; Table 2, ATCC 90873; read-out: Minimal inhibitory concentration (MIC80)
Protocol: as §1, §2, §3, §4, §5, §6, §7, §8, §9

[10] = tested on: Candida albican ATCC 96901; experiment: In vitro antifungal activity (MIC80), Candida albican ATCC 96901; details: Candida, ATCC96901; Table 2, ATCC 96901; read-out: Minimal inhibitory concentration (MIC80)
Protocol: as §1, §2, §3, §4, §5, §6, §7, §8, §9

[11] = tested on: Aspergillus fumigatus (ATCC 16424); experiment: In vitro antifungal activity (MIC80), Aspergillus fumigatus ATCC 16424; details: Aspergillus fumigatus, ATCC16424, Table 2, ATCC 16424; read-out: Minimal inhibitory concentration (MIC80)
Protocol: as §1, §2, §3, §4, §5, §6, §7, §8, §9
MIC80 of each of the compounds of which antifungal activities can be confirmed by Table 2 was determined using other test strains, i.e., Aspergillus fumigatus ATCC 16424 and MYA-1163, Aspergillus terreus ATCC 28301, Aspergillus flavus ATCC MYA-1004, and Aspergillus niger ATCC 9142.

[12] = tested on: Candida albican ATCC 204276; experiment: In vitro antifungal activity (MIC80), Candida albican ATCC 204276; details: ATCC204276, Table 2, 204276, read-out: Minimal inhibitory concentration (MIC80)
Protocol: as §1, §2, §3, §4, §5, §6, §7, §8, §9

Compound	MIC80 [1]	MIC80 [2]	MIC80 [3]	MIC80 [4]	MIC80 [5]	MIC80 [6]	MIC80 [7]	MIC80 [8]	MIC80 [9]	MIC80 [10]	MIC80 [11]	MIC80 [12]
C[C@@H](N1CCCN(c2ccc3ccccc3n2)CC1)[C@](O)(Cn1cncn1)c1ccc(F)cc1F [Example 40, (2R,3R)-2-(2,4-difluorophenyl)-3-(4-(quinolin-2-yl)-1,4-diazepan-1-yl)-1-(1H-1,2,4-triazol-1-yl)butan-2-ol]	0.125 µg/mL (≈ 0.261 µM)	> 128 µg/mL	8 µg/mL (≈ 16.7 µM)	0.125 µg/mL (≈ 0.261 µM)	2 µg/mL (≈ 4.18 µM)	0.25 µg/mL (≈ 0.522 µM)	0.5 µg/mL (≈ 1.04 µM)	2 µg/mL (≈ 4.18 µM)	0.125 µg/mL (≈ 0.261 µM)	16 µg/mL (≈ 33.4 µM)		
C[C@@H](N1CCN(Cc2ccccn2)CC1)[C@](O)(Cn1cncn1)c1ccc(F)cc1F [Example 41, (2R,3R)-2-(2,4-difluorophenyl)-3-(4-((pyridin-2-yl)methyl)piperazin-1-yl)-1-(1H-1,2,4-triazol-1-yl)butan-2-ol]	64 µg/mL (≈ 149 µM)	> 128 µg/mL	64 µg/mL (≈ 149 µM)	0.125 µg/mL (≈ 0.292 µM)	16 µg/mL (≈ 37.3 µM)		2 µg/mL (≈ 4.67 µM)	64 µg/mL (≈ 149 µM)	0.125 µg/mL (≈ 0.292 µM)	32 µg/mL (≈ 74.7 µM)	1 µg/mL (≈ 2.33 µM)	0.125 µg/mL (≈ 0.292 µM)
C[C@@H](N1CCN(Cc2ccncc2)CC1)[C@](O)(Cn1cncn1)c1ccc(F)cc1F [Example 42, (2R,3R)-2-(2,4-difluorophenyl)-3-(4-((pyridin-4-yl)methyl)piperazin-1-yl)-1-(1H-1,2,4-triazol-1-yl)butan-2-ol]	0.5 µg/mL (≈ 1.17 µM)	128 µg/mL (≈ 299 µM)	64 µg/mL (≈ 149 µM)	0.125 µg/mL (≈ 0.292 µM)	4 µg/mL (≈ 9.34 µM)	0.5 µg/mL (≈ 1.17 µM)	1 µg/mL (≈ 2.33 µM)	4 µg/mL (≈ 9.34 µM)	0.125 µg/mL (≈ 0.292 µM)	64 µg/mL (≈ 149 µM)		
C[C@@H](N1CCN(C(=O)c2nc(-c3ccccc3)no2)CC1)[C@](O)(Cn1cncn1)c1ccc(F)cc1F [Example 45, (4-((2R,3R)-3-(2,4-difluorophenyl)-3-hydroxy-4-(1H-1,2,4-triazol-1-yl)butan-2-yl)piperazin-1-yl)(3-phenyl-1,2,4-oxadiazol-5-yl)methanone]		> 128 µg/mL					1 µg/mL (≈ 1.96 µM)		0.125 µg/mL (≈ 0.245 µM)	> 128 µg/mL	0.125 µg/mL (≈ 0.245 µM)	
C[C@@H](N1CCN(C(=O)c2nc(-c3ccc(Br)cc3)no2)CC1)[C@](O)(Cn1cncn1)c1ccc(F)cc1F [Example 46, (3-(4-bromophenyl)-1,2,4-oxadiazol-5-yl)(4-((2R,3R)-3-(2,4-difluorophenyl)-3-hydroxy-4-(1H-1,2,4-triazol-1-yl)butan-2-yl)piperazin-1-yl)methanone]		> 128 µg/mL					> 128 µg/mL		0.125 µg/mL (≈ 0.212 µM)	> 128 µg/mL	0.126 µg/mL (≈ 0.214 µM)	
Cc1ccc(-c2noc(C(=O)N3CCN([C@H](C)[C@](O)(Cn4cncn4)c4ccc(F)cc4F)CC3)n2)cc1 [Example 47, (4-((2R,3R)-3-(2,4-difluorophenyl)-3-hydroxy-4-(1H-1,2,4-triazol-1-yl)butan-2-yl)piperazin-1-yl)(3-p-tolyl-1,2,4-oxadiazol-5-yl)methanone]		> 128 µg/mL					0.25 µg/mL (≈ 0.478 µM)		0.125 µg/mL (≈ 0.239 µM)	> 128 µg/mL	0.25 µg/mL (≈ 0.478 µM)	
CC(N1CCN(C(=O)c2nc(-c3ccc(Cl)cc3)no2)CC1)C(O)(Cn1cncn1)c1ccc(F)cc1F [Example 48, (3-(4-chlorophenyl-1,2,4-oxadiazol-5-yl)(4-((2R,3R)-3-(2,4-difluorophenyl)-3-hydroxy-4-(1H-1,2,4-triazol-1-yl)butan-2-yl)piperazin-1-yl)methanone]		> 128 µg/mL					0.25 µg/mL (≈ 0.46 µM)		0.126 µg/mL (≈ 0.232 µM)	> 128 µg/mL	0.126 µg/mL (≈ 0.232 µM)	
COc1ccc(-c2noc(C(=O)N3CCN([C@H](C)[C@](O)(Cn4cncn4)c4ccc(F)cc4F)CC3)n2)cc1 [Example 49, (4-((2R,3R)-3-(2,4-difluorophenyl)-3-hydroxy-4-(1H-1,2,4-triazol-1-yl)butan-2-yl)piperazin-1-yl)(3-(4-methoxyphenyl)-1,2,4-oxadiazol-5-yl)methanone]		> 128 µg/mL					1 µg/mL (≈ 1.85 µM)		0.125 µg/mL (≈ 0.232 µM)	> 128 µg/mL	0.5 µg/mL (≈ 0.927 µM)	
C[C@@H](N1CCN(C(=O)c2nc(-c3ccccc3)ns2)CC1)[C@](O)(Cn1cncn1)c1ccc(F)cc1F [Example 50, (4-((2R,3R)-3-(2,4-difluorophenyl)-3-hydroxy-4-(1H-1,2,4-triazol-1-yl)butan-2-yl)piperazin-1-yl)(3-phenyl-1,2,4-thiadiazol-5-yl)methanone]		> 128 µg/mL					> 128 µg/mL		0.125 µg/mL (≈ 0.238 µM)	> 128 µg/mL	0.5 µg/mL (≈ 0.951 µM)	
C[C@@H](N1CCN(C(=O)c2nc(-c3ccc(Cl)cc3)ns2)CC1)[C@](O)(Cn1cncn1)c1ccc(F)cc1F [Example 51, (3-(4-chlorophenyl)-1,2,4-thiadiazol-5-yl)(4-((2R,3R)-3-(2,4-difluorophenyl)-3-hydroxy-4-(1H-1,2,4-triazol-1-yl)butan-2-yl)piperazin-1-yl)methanone]		> 128 µg/mL					4 µg/mL (≈ 7.14 µM)		0.25 µg/mL (≈ 0.446 µM)	> 128 µg/mL	1 µg/mL (≈ 1.79 µM)	
Cc1ccc(-c2nsc(C(=O)N3CCN([C@H](C)[C@](O)(Cn4cncn4)c4ccc(F)cc4F)CC3)n2)cc1 [Example 53, (4-((2R,3R)-3-(2,4-difluorophenyl)-3-hydroxy-4-(1H-1,2,4-triazol-1-yl)butan-2-yl)piperazin-1-yl)(3-p-tolyl-1,2,4-thiadiazol-5-yl)methanone]		> 128 µg/mL					> 128 µg/mL		0.25 µg/mL (≈ 0.463 µM)	> 128 µg/mL	1 µg/mL (≈ 1.85 µM)	
COc1ccc(-c2nsc(C(=O)N3CCN([C@H](C)[C@](O)(Cn4cncn4)c4ccc(F)cc4F)CC3)n2)cc1 [Example 54, (4-((2R,3R)-3-(2,4-difluorophenyl)-3-hydroxy-4-(1H-1,2,4-triazol-1-yl)butan-2-yl)piperazin-1-yl)(3-(4-methoxyphenyl)-1,2,4-thiadiazol-5-yl)methanone]		> 128 µg/mL					4 µg/mL (≈ 7.2 µM)		0.125 µg/mL (≈ 0.225 µM)	> 128 µg/mL	0.5 µg/mL (≈ 0.9 µM)	
